This is an account of results in patent US8541588B2, “Sulfonamide derivatives” (Pfizer Limited, priority 2009, dated 2013).

A value given as a limit tells only on which side of the number the result lay.

For the test, the target named is T1, Nav1.7 (or SCN9A) channel; HEK cells stably transfected with hSCN9A (Homo sapiens, UniProt Q15858).
T1 construct: expressed in transfected cells
Kind of test: Nav1.7 block, PatchXpress 7000 automated whole-cell voltage clamp, estimated IC50 (EIC50). The format is cell-based. The settings on record: estimated IC50; hSCN9A HEK cells, PatchXpress platform; Examples 283-814.

Usually IC50 stands for the concentration needed to halve the response being measured.

T1 sequence (Q15858 whole entry): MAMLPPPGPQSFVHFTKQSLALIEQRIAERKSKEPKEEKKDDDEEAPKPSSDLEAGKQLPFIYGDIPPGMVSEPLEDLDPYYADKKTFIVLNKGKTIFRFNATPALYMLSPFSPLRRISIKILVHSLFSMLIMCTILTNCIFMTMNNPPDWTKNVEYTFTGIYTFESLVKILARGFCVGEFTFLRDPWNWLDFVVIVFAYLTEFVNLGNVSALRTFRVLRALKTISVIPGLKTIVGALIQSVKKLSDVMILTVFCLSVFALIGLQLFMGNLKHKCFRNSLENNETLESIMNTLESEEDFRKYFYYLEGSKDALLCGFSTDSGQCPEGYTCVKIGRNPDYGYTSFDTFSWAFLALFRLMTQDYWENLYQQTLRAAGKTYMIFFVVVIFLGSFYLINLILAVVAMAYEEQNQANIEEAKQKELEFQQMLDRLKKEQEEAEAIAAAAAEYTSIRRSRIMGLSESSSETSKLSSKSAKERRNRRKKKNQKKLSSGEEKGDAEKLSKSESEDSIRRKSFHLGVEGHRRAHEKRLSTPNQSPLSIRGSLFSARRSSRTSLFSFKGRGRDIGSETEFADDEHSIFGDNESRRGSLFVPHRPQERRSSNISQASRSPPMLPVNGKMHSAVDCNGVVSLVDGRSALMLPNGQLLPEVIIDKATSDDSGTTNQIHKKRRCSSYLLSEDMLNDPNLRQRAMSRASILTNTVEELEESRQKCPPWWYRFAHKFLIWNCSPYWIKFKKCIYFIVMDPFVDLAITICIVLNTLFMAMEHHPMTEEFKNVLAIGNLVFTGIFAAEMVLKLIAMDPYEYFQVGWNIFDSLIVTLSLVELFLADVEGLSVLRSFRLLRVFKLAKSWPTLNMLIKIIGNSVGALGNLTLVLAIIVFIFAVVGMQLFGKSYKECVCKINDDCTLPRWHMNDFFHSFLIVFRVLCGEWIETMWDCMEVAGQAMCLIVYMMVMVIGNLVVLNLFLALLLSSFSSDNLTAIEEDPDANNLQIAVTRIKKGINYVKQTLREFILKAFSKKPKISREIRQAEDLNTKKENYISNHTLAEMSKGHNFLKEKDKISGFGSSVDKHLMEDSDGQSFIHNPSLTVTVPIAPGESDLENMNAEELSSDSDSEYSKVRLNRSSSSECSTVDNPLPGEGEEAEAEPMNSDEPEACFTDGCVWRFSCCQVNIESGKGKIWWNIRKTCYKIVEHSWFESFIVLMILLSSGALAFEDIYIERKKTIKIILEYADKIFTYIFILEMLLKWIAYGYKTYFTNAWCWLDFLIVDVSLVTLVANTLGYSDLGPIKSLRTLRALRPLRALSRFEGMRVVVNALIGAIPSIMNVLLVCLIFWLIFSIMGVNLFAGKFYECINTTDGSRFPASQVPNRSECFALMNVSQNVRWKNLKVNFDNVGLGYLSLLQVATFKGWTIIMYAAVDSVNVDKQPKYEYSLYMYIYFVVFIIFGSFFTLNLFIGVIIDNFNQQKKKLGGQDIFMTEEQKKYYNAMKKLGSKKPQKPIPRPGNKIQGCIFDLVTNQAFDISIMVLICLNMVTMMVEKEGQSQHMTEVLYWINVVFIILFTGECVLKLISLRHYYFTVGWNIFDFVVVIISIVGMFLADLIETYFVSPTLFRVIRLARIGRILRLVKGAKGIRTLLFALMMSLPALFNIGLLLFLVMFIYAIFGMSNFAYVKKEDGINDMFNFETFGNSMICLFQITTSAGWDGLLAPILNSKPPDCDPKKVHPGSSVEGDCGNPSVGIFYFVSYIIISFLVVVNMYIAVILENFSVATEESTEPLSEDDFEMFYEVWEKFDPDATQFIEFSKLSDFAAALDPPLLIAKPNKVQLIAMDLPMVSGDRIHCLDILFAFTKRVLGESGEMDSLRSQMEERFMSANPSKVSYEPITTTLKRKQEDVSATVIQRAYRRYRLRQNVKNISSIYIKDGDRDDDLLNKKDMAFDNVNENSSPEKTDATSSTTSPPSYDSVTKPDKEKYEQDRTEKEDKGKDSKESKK

Consider `N#Cc1cc(S(=O)(=O)Nc2ncc(F)cn2)ccc1Oc1ccccc1-c1ccccc1` [Example 427, 4-(biphenyl-2-yloxy)-3-cyano-N-(5-fluoropyrimidin-2-yl)benzenesulfonamide], for which the IC50 is 4300 nM.
In the case of `Cc1cncnc1NS(=O)(=O)c1ccc(Oc2ccccc2-c2ccccc2)c(C#N)c1` [Example 428, 4-(biphenyl-2-yloxy)-3-cyano-N-(5-methylpyrimidin-4-yl)benzenesulfonamide], the concentration for half-maximal inhibition (IC50) was >10000 nM.
`Cc1cnc(NS(=O)(=O)c2ccc(Oc3ccccc3-c3ccccc3)c(C#N)c2)nc1` [Example 429, 4-(biphenyl-2-yloxy)-3-cyano-N-(5-methylpyrimidin-2-yl)benzenesulfonamide]: the IC50 is >10000 nM.
With `N#Cc1cc(S(=O)(=O)Nc2ncc(Cl)cn2)ccc1Oc1ccccc1-c1ccccc1` [Example 430, 4-(biphenyl-2-yloxy)-N-(5-chloropyrimidin-2-yl)-3-cyanobenzenesulfonamide] the figure was 12000 nM; with `N#Cc1cc(S(=O)(=O)Nc2ncn[nH]2)ccc1Oc1ccccc1-c1ccccc1` [Example 431, 4-(biphenyl-2-yloxy)-3-cyano-N-1H-1,2,4-triazol-5-ylbenzenesulfonamide], 11000 nM.
In the case of `N#Cc1cnc(NS(=O)(=O)c2ccc(Oc3ccccc3-c3ccccc3)c(C#N)c2)nc1` [Example 432, 4-(biphenyl-2-yloxy)-3-cyano-N-(5-cyanopyrimidin-2-yl)benzenesulfonamide] it was >10000 nM; in that of `N#Cc1ccnc(NS(=O)(=O)c2ccc(Oc3ccccc3-c3ccccc3)c(C#N)c2)n1` [Example 433, 4-(biphenyl-2-yloxy)-3-cyano-N-(4-cyanopyrimidin-2-yl)benzenesulfonamide], 15000 nM.
With `N#Cc1cc(S(=O)(=O)Nc2nccc(C(F)(F)F)n2)ccc1Oc1ccccc1-c1ccccc1` [Example 434, 4-(biphenyl-2-yloxy)-3-cyano-N-[4-(trifluoromethyl)pyrimidin-2-yl]benzenesulfonamide] the figure was 18000 nM; with `Cn1nccc1-c1ccc(Oc2ccc(S(=O)(=O)Nc3nccs3)cc2C#N)cc1` [Example 436, 3-cyano-4-[4-(1-methyl-1H-pyrazol-5-yl)phenoxy]-N-1,3-thiazol-2-ylbenzenesulfonamide], 1300 nM; with `Cn1nccc1-c1cc(C(F)(F)F)ccc1Oc1ccc(S(=O)(=O)Nc2ncns2)cc1C#N` [Example 437, 3-cyano-4-[2-(1-methyl-1H-pyrazol-5-yl)-4-(trifluoromethyl)phenoxy]-N-1,2,4-thiadiazol-5-ylbenzenesulfonamide], 56 nM.
On to `COc1cc(-c2cc(Cl)ccc2Oc2ccc(S(=O)(=O)Nc3nccs3)cc2C#N)n(C)n1` [Example 439, 4-[4-chloro-2-(3-methoxy-1-methyl-1H-pyrazol-5-yl)phenoxy]-3-cyano-N-1,3-thiazol-2-ylbenzenesulfonamide], for which the IC50 is 490 nM.
In the case of `Cn1nccc1-c1cc(C(F)(F)F)ccc1Oc1ccc(S(=O)(=O)Nc2nccs2)cc1C#N` [Example 440, 3-cyano-4-[2-(1-methyl-1H-pyrazol-5-yl)-4-(trifluoromethyl)phenoxy]-N-1,3-thiazol-2-ylbenzenesulfonamide] it was 17 nM; in that of `Cn1nccc1-c1cc(C#N)ccc1Oc1cc(F)c(S(=O)(=O)Nc2ncc(Cl)s2)cc1F` [Example 441, N-(5-chloro-1,3-thiazol-2-yl)-4-[4-cyano-2-(1-methyl-1H-pyrazol-5-yl)phenoxy]-2,5-difluorobenzenesulfonamide], 960 nM; in that of `Cn1nccc1-c1cc(Cl)ccc1Oc1ccc(S(=O)(=O)Nc2ccccn2)cc1C#N` [Example 442, 4-[4-chloro-2-(1-methyl-1H-pyrazol-5-yl)phenoxy]-3-cyano-N-pyridin-2-ylbenzenesulfonamide], 1300 nM.
In the case of `Cn1nccc1-c1ccc(Oc2ccc(S(=O)(=O)Nc3nccs3)cc2C#N)cc1Cl` [Example 443, 4-[3-chloro-4-(1-methyl-1H-pyrazol-5-yl)phenoxy]-3-cyano-N-1,3-thiazol-2-ylbenzenesulfonamide], the IC50 is 1800 nM.
In the case of `N#Cc1cc(S(=O)(=O)Nc2nccs2)ccc1Oc1cccc(-c2ccn[nH]2)c1` [Example 444, 3-cyano-4-[3-(1H-pyrazol-5-yl)phenoxy]-N-1,3-thiazol-2-ylbenzenesulfonamide], the IC50 is 9900 nM.
In the case of `Cn1nccc1-c1cccc(Oc2ccc(S(=O)(=O)Nc3nccs3)cc2C#N)c1` [Example 445, 3-cyano-4-[3-(1-methyl-1H-pyrazol-5-yl)phenoxy]-N-1,3-thiazol-2-ylbenzenesulfonamide] it was >1000 nM; in that of `N#Cc1cc(S(=O)(=O)Nc2nccs2)ccc1Oc1ccc(Cl)c(-c2ccn[nH]2)c1` [Example 446, 4-[4-chloro-3-(1H-pyrazol-5-yl)phenoxy]-3-cyano-N-1,3-thiazol-2-ylbenzenesulfonamide], 2300 nM; in that of `N#Cc1cc(S(=O)(=O)Nc2nccs2)ccc1Oc1cccc(-c2cc(C(F)(F)F)ccn2)c1` [Example 447, 3-cyano-N-1,3-thiazol-2-yl-4-{3-[4-(trifluoromethyl)pyridin-2-yl]phenoxy}benzenesulfonamide], 1800 nM.
In the case of `N#Cc1cc(S(=O)(=O)Nc2nccs2)ccc1Oc1cccc(-c2cccc(C(F)(F)F)n2)c1` [Example 448, 3-cyano-N-1,3-thiazol-2-yl-4-{3-[6-(trifluoromethyl)pyridin-2-yl]phenoxy}benzenesulfonamide] it was 2000 nM.
With `N#Cc1cc(S(=O)(=O)Nc2nccs2)ccc1Oc1cccc(-c2ccccn2)c1` [Example 449, 3-cyano-4-(3-pyridin-2-ylphenoxy)-N-1,3-thiazol-2-ylbenzenesulfonamide] the figure was 3100 nM; with `Cc1ccnc(-c2ccc(Oc3ccc(S(=O)(=O)Nc4nccs4)cc3C#N)cc2)c1` [Example 450, 3-cyano-4-[4-(4-methylpyridin-2-yl)phenoxy]-N-1,3-thiazol-2-ylbenzenesulfonamide], 3400 nM.
For the compound `COc1cccc(-c2ccc(Oc3ccc(S(=O)(=O)Nc4nccs4)cc3C#N)cc2)n1` [Example 451, 3-cyano-4-[4-(6-methoxypyridin-2-yl)phenoxy]-N-1,3-thiazol-2-ylbenzenesulfonamide], the IC50 is >1000 nM.
In the case of `N#Cc1cc(S(=O)(=O)Nc2nccs2)ccc1Oc1ccc(-c2cccc(C(F)(F)F)n2)cc1` [Example 453, 3-cyano-N-1,3-thiazol-2-yl-4-{4-[6-(trifluoromethyl)pyridin-2-yl]phenoxy}benzenesulfonamide] it was 1700 nM; in that of `N#Cc1cc(S(=O)(=O)Nc2nccs2)ccc1Oc1ccc(-c2nccc(C(F)(F)F)n2)cc1` [Example 454, 3-cyano-N-1,3-thiazol-2-yl-4-{4-[4-(trifluoromethyl)pyrimidin-2-yl]phenoxy}benzenesulfonamide], >1000 nM.
With `Cc1cccnc1-c1ccc(Oc2ccc(S(=O)(=O)Nc3nccs3)cc2C#N)cc1` [Example 455, 3-cyano-4-[4-(3-methylpyridin-2-yl)phenoxy]-N-1,3-thiazol-2-ylbenzenesulfonamide] the figure was 2300 nM.
With `N#Cc1cc(S(=O)(=O)Nc2nccs2)ccc1Oc1ccc(-c2ncccc2Cl)cc1` [Example 456, 4-[4-(3-chloropyridin-2-yl)phenoxy]-3-cyano-N-1,3-thiazol-2-ylbenzenesulfonamide] the figure was 1900 nM; with `N#Cc1cc(S(=O)(=O)Nc2nccs2)ccc1Oc1ccc(-c2ncccc2C(F)(F)F)cc1` [Example 457, 3-cyano-N-1,3-thiazol-2-yl-4-{4-[3-(trifluoromethyl)pyridin-2-yl]phenoxy}benzenesulfonamide], 2000 nM.
`N#Cc1cc(S(=O)(=O)Nc2ncns2)cc(F)c1Oc1ccc(F)cc1-c1ccn[nH]1` [Example 459, 3-cyano-5-fluoro-4-[4-fluoro-2-(1H-pyrazol-5-yl)phenoxy]-N-1,2,4-thiadiazol-5-ylbenzenesulfonamide]: the IC50 was 840 nM.
In the case of `N#Cc1cc(S(=O)(=O)Nc2nccs2)ccc1Oc1ccc(C(F)(F)F)cc1-c1cn[nH]c1` [Example 460, 4-(2-(1H-pyrazol-4-yl)-4-(trifluoromethyl)phenoxy)-3-cyano-N-(thiazol-2-yl)benzenesulfonamide] it was 15 nM.
In the case of `N#Cc1cc(S(=O)(=O)Nc2nccs2)ccc1Oc1ccc(Br)cc1-c1ccn[nH]1` [Example 461, 4-[4-bromo-2-(1H-pyrazol-5-yl)phenoxy]-3-cyano-N-1,3-thiazol-2-ylbenzenesulfonamide] it was 20 nM; in that of `Cn1nccc1-c1cc(Cl)ccc1Oc1ccc(S(=O)(=O)Nc2ncc(C(F)(F)F)cn2)cc1C#N` [Example 462, 4-[4-chloro-2-(1-methyl-1H-pyrazol-5-yl)phenoxy]-3-cyano-N-[5-(trifluoromethyl)pyrimidin-2-yl]benzenesulfonamide], 51000 nM.
With `Cn1nccc1-c1cc(Cl)ccc1Oc1ccc(S(=O)(=O)Nc2ncc(C#N)cn2)cc1C#N` [Example 463, 4-[4-chloro-2-(1-methyl-1H-pyrazol-5-yl)phenoxy]-3-cyano-N-(5-cyanopyrimidin-2-yl)benzenesulfonamide] the figure was 22000 nM.
Consider `Cn1nccc1-c1cc(Cl)ccc1Oc1ccc(S(=O)(=O)Nc2ncc(Cl)cn2)cc1C#N` [Example 464, 4-[4-chloro-2-(1-methyl-1H-pyrazol-5-yl)phenoxy]-N-(5-chloropyrimidin-2-yl)-3-cyanobenzenesulfonamide], for which the IC50 is 6000 nM.
With `Cn1nccc1-c1cc(Cl)ccc1Oc1ccc(S(=O)(=O)Nc2ncc(F)cn2)cc1C#N` [Example 465, 4-[4-chloro-2-(1-methyl-1H-pyrazol-5-yl)phenoxy]-3-cyano-N-(5-fluoropyrimidin-2-yl)benzenesulfonamide] the figure was 1000 nM; with `Cn1nccc1-c1cc(Cl)ccc1Oc1ccc(S(=O)(=O)Nc2ccc(C#N)cn2)cc1C#N` [Example 466, 4-[4-chloro-2-(1-methyl-1H-pyrazol-5-yl)phenoxy]-3-cyano-N-(5-cyanopyridin-2-yl)benzenesulfonamide], 36000 nM.
